According to patent US11603387B2, “SOCS mimetics for the treatment of diseases” (UNIVERSITY OF FLORIDA RESEARCH FOUNDATION, INC., priority 2014, dated 2023):

Test system: SOCS1+/+ or SOCS1+/− CD4+CD25− T cells
Experiment: CD4+ T cell activation (CD25 expressing cells, flow cytometry) after αCD3 stimulation
Assay type: cell-based, mouse
Details: αCD3 + SOCS1-KIR peptide (20 μM), 72 h
Protocol: FIGS. 5A-5D. […] (FIGS. 5A and 5B) SOCS1^+/+ or SOCS1^+/− CD4^+CD25^− T cells were stimulated with αCD3 antibodies alone or with αCD3+SOCS1-KIR peptide (20 μM) for 72 h. (FIG. 5A) CD25 expressing cells were assessed by flow cytometry. Results are representative of 4 independent experiments. (FIG. 5B) Proliferation was assessed by CFSE labeling and flow cytometry, cell counts, and ^3[H] thymidine incorporation. n=4. (FIGS. 5C and 5D) SOCS1^+/+ or SOCS1^+/− CD4^+CD25^− T cells were placed under Th17 inducing conditions in the absence or presence of SOCS1-KIR peptide (20 μM) (FIG. 5C) IFNγ expression, relative to β-actin., was assessed by qPCR (left) and ELISA (right) (n=4). (FIG. 5D) pSTAT1 and STAT1 protein expressions were assessed by western blotting. […]
CD4^+ T cell proliferation was assessed by CFSE staining, ^3H thymidine incorporation, and absolute cell counts. […] After 72 h of incubation, cell cultures were either pulsed with 0.5 mCi ^3H thymidine (GE Healthcare; Arlington Heights, Ill.) or counted and harvested for assessment by flow cytometry. In cultures analyzed by flow cytometry, T lymphocytes were labeled with 10 μg/ml CFSE prior to culture as previously described (Cozzo et al. 2003). ^3H thymidine pulsed T lymphocytes were harvested 16-18 hours after initial pulse followed by the ^3H thymidine incorporation assessment using a Beckman LS3801 Liquid Scintillation System. […]

Sequence: DTHFRTFRSHSDYRRI (SOCS1-KIR peptide) [SOCS1 mimetic peptide corresponding to the KIR region of SOCS1]
- αCD3 mediated CD25 up-regulation (SOCS1+/− CD4+ T lymphocytes): sufficient to inhibit excessive αCD3 mediated CD25 up-regulation
- CD25 expression (WT (SOCS1+/+) CD4+ T lymphocytes): limited effects on CD25 expression
